Test results from patent publication US7674823B2, “DNA-PK inhibitors” (Cancer Research Technology Limited, priority 2001, dated 2010).
Like-named read-outs stand apart in the source and are kept apart here.

Biological target: T1, Mammalian DNA-PK, isolated from Hela cell nuclear extract (Homo sapiens, UniProt P78527)
T1 construct: Mammalian DNA-PK, isolated from Hela cell nuclear extract; endogenous in cells; host or cells: HeLa cell nuclear extract (purified per Gell and Jackson 1999)
Assay: DNA-PK inhibition assay (33P-ATP, filter binding)
Format: biochemical
Experimental: In order to assess the inhibitory action of the compounds against DNA-PK in vitro, the following assay was used to determine IC50 values.
The total assay volume per well was 40 μl.
After 10 minutes of incubation at 30° C. the reactions were initiated by the addition of Na-ATP (50 μM final), ^33p-γATP and a 30mer double stranded DNA oligonucleotide (10 ng/μl) in a volume of 10 μl. Designated positive and negative reaction wells were done in combination with compound wells (unknowns) in order to calculate % enzyme activities. The plates were then shaken for 2 minutes and incubated at 30° C. for 45 minutes.
Following the incubation, the reactions were quenched by the addition of 50 μl 30% acetic acid to each well. The plates were then shaken for 5 minutes and the contents of each plate (80 μl from each well) transferred over to a 96 well Polyfiltronics filtration plate, containing P81-phosphocellulose membrane (TRADE MARK)(Whatman, UK). The solutions were vacuum pumped through the membrane and each well membrane washed four times using 300 μl of 15% acetic acid. The well membranes were then air dried and 20 μl of scintillant was added to each well.
The plates were transferred to a TopCount NXT (TRADE MARK) (Packard, UK) for scintillation counting. Values recorded are counts per minute (cpm) following a 1 minute counting time for each well.
The enzyme activity for each compound is then calculated using the following equation: […]
These are determined over a range of different concentrations, normally from 10 μM down to 0.01 μM. Such IC50 values are used as comparative values to identify increased compound potencies.

[1] = IC50 of less than about 1 μM and/or % inhibition of more than about 50 at 1 μM, read-out: DNA-PK inhibition IC50 (particular efficacy)
[2] = concentration at which 50% of the enzyme activity is inhibited, read-out: DNA-PK Inhibition IC50

O=c1cc(N2CC[C@H](O)C2)nc2c3ccccc3ccn12 [Compound 12, 2-((S)-3-Hydroxy-pyrrolin-1-yl)-pyrimido[2,1-a]isoquinolin-4-one]
IC50 (read-out: DNA-PK Inhibition IC50): 10.5 µM

O=c1cc(-c2ccc3c(c2)CCO3)oc(N2CCOCC2)c1 [Compound 59]
IC50 [1]: < 1 µM

O=c1cc(-c2ccc3c(c2)OCCO3)oc(N2CCOCC2)c1 [Compound 60]
IC50 [1]: < 1 µM

O=c1cc(-c2cccc3ccsc23)oc(N2CCOCC2)c1 [Compound 72]
IC50 [1]: < 1 µM

N#CCNC(=O)c1cccc(-c2cc(=O)cc(N3CCOCC3)o2)c1 [Compound 73]
IC50 [1]: < 1 µM

O=C(NC1CC1)c1cccc(-c2cc(=O)cc(N3CCOCC3)o2)c1 [Compound 74]
IC50 [1]: < 1 µM

O=C(NCc1cccc(C(F)(F)F)c1)c1cccc(-c2cc(=O)cc(N3CCOCC3)o2)c1 [Compound 99]
IC50 [1]: < 1 µM

Nc1cccc(CNC(=O)c2cccc(-c3cc(=O)cc(N4CCOCC4)o3)c2)c1 [Compound 104]
IC50 [1]: < 1 µM

CN(C)c1ccc(CNC(=O)c2cccc(-c3cc(=O)cc(N4CCOCC4)o3)c2)cc1 [Compound 105]
IC50 [1]: < 1 µM

CN(C)CCN(Cc1ccccc1)C(=O)c1cccc(-c2cc(=O)cc(N3CCOCC3)o2)c1 [Compound 106]
IC50 [1]: < 1 µM

NCc1cccc(CNC(=O)c2cccc(-c3cc(=O)cc(N4CCOCC4)o3)c2)c1 [Compound 107]
IC50 [1]: < 1 µM

O=C(NC1CCC(O)CC1)c1cccc(-c2cc(=O)cc(N3CCOCC3)o2)c1 (centres unmarked) [Compound 114]
IC50 [1]: < 1 µM

CCN(CC)CCCNC(=O)c1cccc(-c2cc(=O)cc(N3CCOCC3)o2)c1 [Compound 118]
IC50 [1]: < 1 µM

O=C(CNC(=O)c1cccc(-c2cc(=O)cc(N3CCOCC3)o2)c1)c1cccc([N+](=O)[O-])c1 [Compound 123]
IC50 [1]: < 1 µM

COCCCNC(=O)c1cccc(-c2cc(=O)cc(N3CCOCC3)o2)c1 [Compound 125]
IC50 [1]: < 1 µM

O=C(NCCOc1ccccc1)c1cccc(-c2cc(=O)cc(N3CCOCC3)o2)c1 [Compound 126]
IC50 [1]: < 1 µM

COCCNC(=O)c1cccc(-c2cc(=O)cc(N3CCOCC3)o2)c1 [Compound 127]
IC50 [1]: < 1 µM

O=C(NCc1cccs1)c1cccc(-c2cc(=O)cc(N3CCOCC3)o2)c1 [Compound 131]
IC50 [1]: < 1 µM

O=C(c1cccc(-c2cc(=O)cc(N3CCOCC3)o2)c1)N1CCOCC1 [Compound 139]
IC50 [1]: < 1 µM

O=C(c1cccc(-c2cc(=O)cc(N3CCOCC3)o2)c1)N1CCCC(CO)C1 (centres unmarked) [Compound 140]
IC50 [1]: < 1 µM

O=C(c1cccc(-c2cc(=O)cc(N3CCOCC3)o2)c1)N1CCN(C/C=C/c2ccccc2)CC1 [Compound 143]
IC50 [1]: < 1 µM

O=C(NN1CCOCC1)c1cccc(-c2cc(=O)cc(N3CCOCC3)o2)c1 [Compound 146]
IC50 [1]: < 1 µM

Cc1ccccc1CNC(=O)c1ccc(-c2cc(=O)cc(N3CCOCC3)o2)cc1 [Compound 163]
IC50 [1]: < 1 µM

O=C(c1ccc(-c2cc(=O)cc(N3CCOCC3)o2)cc1)N(Cc1ccccc1)Cc1ccccc1 [Compound 166]
IC50 [1]: < 1 µM

COc1ccc(CCNC(=O)c2ccc(-c3cc(=O)cc(N4CCOCC4)o3)cc2)cc1 [Compound 167]
IC50 [1]: < 1 µM

O=C(NCc1cccc(F)c1)c1ccc(-c2cc(=O)cc(N3CCOCC3)o2)cc1 [Compound 169]
IC50 [1]: < 1 µM

O=C(NCCCc1ccccc1)c1ccc(-c2cc(=O)cc(N3CCOCC3)o2)cc1 [Compound 170]
IC50 [1]: < 1 µM

CC(CNC(=O)c1ccc(-c2cc(=O)cc(N3CCOCC3)o2)cc1)c1ccc(Cl)cc1 (centres unmarked) [Compound 173]
IC50 [1]: < 1 µM

O=C(NCc1ccc(OC(F)(F)F)cc1)c1ccc(-c2cc(=O)cc(N3CCOCC3)o2)cc1 [Compound 175]
IC50 [1]: < 1 µM

O=C(NCc1cc(C(F)(F)F)cc(C(F)(F)F)c1)c1ccc(-c2cc(=O)cc(N3CCOCC3)o2)cc1 [Compound 176]
IC50 [1]: < 1 µM

O=C(NCc1cccc(C(F)(F)F)c1)c1ccc(-c2cc(=O)cc(N3CCOCC3)o2)cc1 [Compound 178]
IC50 [1]: < 1 µM

O=C(NCc1cc(F)cc(C(F)(F)F)c1)c1ccc(-c2cc(=O)cc(N3CCOCC3)o2)cc1 [Compound 179]
IC50 [1]: < 1 µM

Nc1cccc(CNC(=O)c2ccc(-c3cc(=O)cc(N4CCOCC4)o3)cc2)c1 [Compound 182]
IC50 [1]: < 1 µM

O=C(NCCSCc1c(F)cccc1Cl)c1ccc(-c2cc(=O)cc(N3CCOCC3)o2)cc1 [Compound 187]
IC50 [1]: < 1 µM

O=C(NC(CO)CO)c1ccc(-c2cc(=O)cc(N3CCOCC3)o2)cc1 [Compound 190]
IC50 [1]: < 1 µM

CSCCC(CO)NC(=O)c1ccc(-c2cc(=O)cc(N3CCOCC3)o2)cc1 (centres unmarked) [Compound 192]
IC50 [1]: < 1 µM

CC(C)(C)OC(=O)CNC(=O)c1ccc(-c2cc(=O)cc(N3CCOCC3)o2)cc1 [Compound 194]
IC50 [1]: < 1 µM

COCC(Cc1ccccc1)NC(=O)c1ccc(-c2cc(=O)cc(N3CCOCC3)o2)cc1 (centres unmarked) [Compound 200]
IC50 [1]: < 1 µM

O=C(NCCOc1ccccc1)c1ccc(-c2cc(=O)cc(N3CCOCC3)o2)cc1 [Compound 202]
IC50 [1]: < 1 µM

O=C(NCCCNC(=O)c1ccc(-c2cc(=O)cc(N3CCOCC3)o2)cc1)OCc1ccccc1 [Compound 203]
IC50 [1]: < 1 µM

O=C(NC1CCN(Cc2ccccc2)CC1)c1ccc(-c2cc(=O)cc(N3CCOCC3)o2)cc1 [Compound 205]
IC50 [1]: < 1 µM

O=C(NC1CN2CCC1CC2)c1ccc(-c2cc(=O)cc(N3CCOCC3)o2)cc1 (centres unmarked) [Compound 206]
IC50: < 1 µM

O=C(NCc1ccco1)c1ccc(-c2cc(=O)cc(N3CCOCC3)o2)cc1 [Compound 211]
IC50 [1]: < 1 µM

O=C(NCc1ccccn1)c1ccc(-c2cc(=O)cc(N3CCOCC3)o2)cc1 [Compound 214]
IC50 [1]: < 1 µM

CCOC(=O)C1CCCN(C(=O)c2ccc(-c3cc(=O)cc(N4CCOCC4)o3)cc2)C1 (centres unmarked) [Compound 215]
IC50 [1]: < 1 µM

COC(=O)C(NCc1ccc(-c2cc(=O)cc(N3CCOCC3)o2)cc1)c1ccccc1 (centres unmarked) [Compound 247]
IC50 [1]: < 1 µM

O=c1cc(-c2ccc(CNCc3cccc(F)c3)cc2)oc(N2CCOCC2)c1 [Compound 249]
IC50 [1]: < 1 µM

O=c1cc(-c2ccc(CNCc3ccc(OC(F)(F)F)cc3)cc2)oc(N2CCOCC2)c1 [Compound 252]
IC50 [1]: < 1 µM

COc1cccc(CNCc2ccc(-c3cc(=O)cc(N4CCOCC4)o3)cc2)c1OC [Compound 253]
IC50 [1]: < 1 µM

Nc1ccccc1CNCc1ccc(-c2cc(=O)cc(N3CCOCC3)o2)cc1 [Compound 255]
IC50 [1]: < 1 µM

O=c1cc(-c2ccc(CN3Cc4cccc5cccc(c45)C3)cc2)oc(N2CCOCC2)c1 [Compound 258]
IC50 [1]: < 1 µM

O=c1cc(-c2ccc(CN3CCc4ccccc4C3)cc2)oc(N2CCOCC2)c1 [Compound 260]
IC50 [1]: < 1 µM

CC(=O)OC(C)C(=O)Nc1ccc(-c2cc(=O)cc(N3CCOCC3)o2)cc1 (centres unmarked) [Compound 267]
IC50 [1]: < 1 µM

CC(O)C(=O)Nc1ccc(-c2cc(=O)cc(N3CCOCC3)o2)cc1 (centres unmarked) [Compound 268]
IC50 [1]: < 1 µM

CCOC(=O)CC(=O)Nc1ccc(-c2cc(=O)cc(N3CCOCC3)o2)cc1 [Compound 269]
IC50 [1]: < 1 µM

O=C(CSc1ccccc1)Nc1ccc(-c2cc(=O)cc(N3CCOCC3)o2)cc1 [Compound 270]
IC50 [1]: < 1 µM

O=C(Cc1cccs1)Nc1ccc(-c2cc(=O)cc(N3CCOCC3)o2)cc1 [Compound 271]
IC50 [1]: < 1 µM

O=C(Nc1ccc(-c2cc(=O)cc(N3CCOCC3)o2)cc1)C1CCCN1C(=O)C(F)(F)F (centres unmarked) [Compound 279]
IC50 [1]: < 1 µM

O=c1cc(N2CCCC2)oc2c1ccc1ccccc12 [Compound 312, 2-pyrrolidin-1-yl-benzo[h]chromen-4-one]
IC50 [2]: 10 µM

O=c1cc(N2CCC(CO)CC2)oc2c1ccc1ccccc12 [Compound 318, 2-(4-Hydroxymethyl-piperidin-1-yl)-benzo[h]chromen-4-one]
IC50 [1]: < 1 µM

O=c1cc(N2CCSC2)oc2c1ccc1ccccc12 [Compound 330, 2-(Thiazolidin-3-yl)-benzo[h]chromen-4-one]
IC50 [2]: 20 µM

N#Cc1ccc(COc2ccc3c(=O)cc(N4CCOCC4)oc3c2)cc1 [Compound 338, 7-(4-cyano-benzyloxy)-2-morpholin-4-yl-chromen-4-one]
IC50 [1]: < 1 µM
IC50 [2]: 0.95 µM

COC(=O)c1ccc(COc2ccc3c(=O)cc(N4CCOCC4)oc3c2)cc1 [Compound 339, Methyl 4-(2-(morpholin-4-yl)-4-oxo-4H-chromen-7-yloxymethyl)-benzoate]
IC50 [1]: < 1 µM

COC(=O)c1cccc(COc2ccc3c(=O)cc(N4CCOCC4)oc3c2)c1 [Compound 340, Methyl 3-(2-(morpholin-4-yl)-4-oxo-4H-chromen-7-yloxymethyl)-benzoate]
IC50 [1]: < 1 µM

O=c1cc(N2CCOCC2)oc2cc(OCc3cccc(Cl)c3)ccc12 [Compound 341, 7-(3-Chlorobenzyloxy)-2-(morpholin-4-yl)-chromen-4-one]
IC50 [1]: < 1 µM
IC50 [2]: 0.65 µM

Cc1cccc(COc2ccc3c(=O)cc(N4CCOCC4)oc3c2)c1 [Compound 342, 7-(3-Methylbenzyloxy)-2-(morpholin-4-yl)-chromen-4-one]
IC50 [2]: 0.8 µM
